Reference: US9000027B2, “Chk1 suppresses a caspase-2 apoptotic response to DNA damage that bypasses p53, bcl-2 and caspase-3” (Dana-Farber Cancer Institute, Inc., priority 2008, dated 2015)
Entries after “also recorded” stand apart in the source; their conditions may differ.

Columns and labels:
HeLa cells = assay: Clonogenic survival assay after IR; type: cell-based, human; details: Gö6976 500 nM from 24 hbIR
Protocol: Clonogenic assays were performed as described (Franken et al., 2006). Briefly, the cells were plated in 6-cm dishes, treated with Gö6976 followed by IR and cultured for 2 weeks. The medium was then removed, and the cells were rinsed by PBS and incubated with a mixture of 6.0% glutaraldehyde and 0.5% crystal violet (Sigma-Aldrich, St Louis, Mo., USA) for 30 min at room temperature. The dishes were washed with water, and colonies consisting of at least 50 cells were counted.

p53 mutant embryos = assay: Live acridine orange (AO) assay of IR-induced cell death in inhibitor-treated p53 mutant embryos; type: in vivo, zebrafish
Source text: Chk1 inhibitors hold considerable promise in cancer therapy, as they are expected to synergize with genotoxic agents to kill tumor cells lacking functional p53, without affecting normal cells (Kawabe, 2004; Zhou and Bartek, 2004). […] Gö6976 has not been tested in vivo in a vertebrate model system. We therefore evaluated it as well as specific Chk2 and ATM inhibitors in the zebrafish system. Drug toxicity was monitored by scoring the AO reactivity of inhibitor-treated, but non-irradiated, p53^+/+ embryos (left column in FIG. 8A). Unless otherwise indicated, the inhibitors were applied at 18 hpf (that is, immediately before IR) for a total of 6 hours.
Live zebrafish embryos were dechorionated in pronase (2.0 mg/mL in egg water) for 3 to 5 min and rinsed five times in egg water at 18 hpf. Embryos were then γ-irradiated (12.5 Gy) using a ^137Cs-irradiator (Gammacell 1000) at 18 hr post-fertilization (hpf). At 24 hpf, embryos were incubated in […] Acridine Orange (AO; Sigma A-6014) in egg water for 30 min at 28.5° C., followed by 3 quick rinses and three 10-min washes in egg water. 5-10 AO-treated embryos were anesthetized in Tricaine ([…]; 3-amino benzoic acid ethylester from Sigma, A-5040) and mounted laterally on a glass slide in warm 0.5% agarose in egg water by streaking a thin layer of the warm agarose across the surface of the slide, and gently pulling the embryos across the agar with a transfer pipette. Lateral images of each zebrafish were acquired on a Zeiss Axioplan2 fluorescence microscope (5× lens), using OpenLab software and a Hammamatsu C4742-95 digital camera. All images were then converted to 8-bit grayscale in NIH ImageJ using the Image>Type>8-bit command. Next, we cropped the images using the Polyonal Selection tool and the Image>Crop functions to include only the trunk of the animal from the head until the beginning of the yolk tube (MO screen; FIG. 1B) or along the entire spinal cord (epistasis analyses; FIGS. 6A & 6D). The area outside of the selected region of interest was cleared using the Edit>Clear Outside command to create a distinct boundary around the area of interest (this is important as it allows the area of interest to be precisely selected after applying the threshold). Next, we split the acquired images into features of interest and background using the Image>Adjust>Threshold function in NIH ImageJ. We then set the maximum threshold of each image to 255 (the lower slide bar in the Threshold window), and adjusted the minimum threshold to the optimized threshold (see below). The threshold was applied using the Black & White display option, with the following Lut options applied; Thresholded pixels to foreground color; Remaining pixels to background color and Black foreground, white background. […] Next, we re-selected the region of interest on the thresholded image, following the bounded image carefully, and analyzed the pixels of the image using the Analyze>Analyze Particles function. The Minimum Size was set to 1px, the Maximum Size was set to the maximum value of 999999 and the Masks option was selected under the Show pull-down menu. The following extended options were also selected: Display Results; Clear Results; Summarize, Size Distribution and Record Starts. If selected by default, the Exclude on Edges option was deselected. The Area Fraction for each image selection was taken from the Summary window, which is the percentage of pixels in the selection that were black. To ensure valid comparisons of the AO labeling results across all experiments, we quantitatively determined a baseline Area Fraction across a large set of simultaneously irradiated and processed p53^+/+ embryos. […] This analysis yielded a mean value for the total labeled surface area of ˜20% (see FIG. 1B, light gray bar). We included at least 6 p53^+/+ non-injected control embryos in all subsequent AO-labeling experiments. […]

[1] = tested on: Tg(rag2:EGFP-bcl-2) larvae; assay: T-cell radioresistance in Tg(rag2:EGFP-bcl-2) larvae; type: in vivo, zebrafish
Source text: To test this notion in vivo, we exploited a zebrafish transgenic line expressing a stable EGFP-bcl-2 fusion transgene under control of the rag2 promoter (Langenau et al., 2005). Such Tg(rag2: EGFP-bcl-2) larvae are characterized by highly radioresistant T- and B-cells at 9 dpf. […] Together with our human cell culture studies, our in vivo analysis of Gö6976 in zebrafish raises the remarkable possibility that tumors disrupting p53 or its attendant downstream pathway—in other words, most human cancers—will respond favorably to Chk1 inhibitors.
Immediately before IR, 18-hpf embryos were dechorionated and transferred to fresh egg water containing 1% DMSO, with or without the following inhibitors at indicated final concentrations: KU55933 (10 μM; Sigma) (Hickson et al., 2004); Chk2 Inhibitor II (10 μM; Calbiochem) (Arienti et al., 2005); Gö6976 (1 μM; Calbiochem) (Kohn et al., 2003). Unless stated otherwise, embryos were exposed to the inhibitors for 6 hr, transferred to fresh egg water, rinsed five times for 5 min, and labeled with AO. For experiments with Tg(rag2:EGFP-bcl-2) larvae, larvae were incubated in the inhibitor solution at 4 dpf, irradiated at 5 dpf, rinsed at 6 dpf, incubated in fresh inhibitor for an additional 72 hr, and mounted live at 9 dpf for fluorescence microscopic analysis of EGFP expression.

Cn1c2ccccc2c2c3c(c4c5ccccc5n(CCC#N)c4c21)CNC3=O [Gö6976]
clonogenic radiosensitization (HeLa cells; 2 Gy): inability of Gö6976 to significantly radiosensitize the cells | reduction in number of colonies (HeLa cells; 3.2 Gy, colonies counted 14 dpIR): 50% | Gö6976-treated p53 mutants showing a marked IR-response recovery (p53 mutant embryos; 1 μM, 12.5 Gy IR at 18 hpf, n=210): 95% | radiosensitization of p53 mutants (IR-induced AO labeling) (p53 mutant embryos; 12.5 Gy at 18 hpf, Gö6976 1 μM, KU55933 10 μM, Chk2 Inhibitor II 10 μM, 6 hr): restored a complete response to IR; also recorded: restored IR-induced cell death with complete penetrance | exposure immediately after IR sufficient to phenocopy chk1 MO knockdown (p53 mutant embryos; p53 mutant embryos): 1.5 h | AO staining response versus p53 mutant response (p53 mutant embryos; p53 mutants treated with Gö6976 for 6 hours, IR): ~500 fold | larvae with T-cell radioresistance suppressed ([1]; 15 Gy IR at 5 dpf, Gö6976 for 5 days from 4 dpf, scored 9 dpf, n=26, DMSO: none (n=28)): 58% | adverse effects of systemic treatment ([1]; larvae, 5 days exposure): without any apparent adverse effects
